Data: US8058285B2, “Substituted pyrido [3′, 2′: 4, 5] thieno [3, 2-D] pyrimidines and pyrido [3′, 2′: 4, 5] furo [3, 2-D] pyrimidines used as inhibitors of the PDE-4 and/or the release of TNF-ALPHA” (The Medicines Company (Leipzig) GmbH, priority 2004, dated 2011)
Where a name gives a salt, the structure may show the parent alone.

Each compound was assayed against T1, PDE-4A (Homo sapiens, UniProt P27815) (assay: PDE-4A inhibitory assay (SPA)).
T1 construct: PDE-4A catalytic domain comprising amino acids 342-704; made in house; host or cells: Escherichia coli
Type: biochemical
Source text: Human recombinant PDE-4A catalytic domain comprising amino acids 342-704 was cloned into Escherichia coli and expressed, as described by W. Richter et al., Protein Expression and Purification (2000) 19: 375-383. The other posphodiesterases were either obtained from cell lines of human origin (TPH1 monocytes line for PDE-1, MCF7 for PDE-5) or expressed recombinantly in sf9 insect cells (for PDE-3A, PDE-3B, PDE-7A and PDE-4D) in accordance with an adapted method by Luckow, V. A. et al., in: Recombinant DNA Technology & Applications., (1991) eds. Prokop, Bajpai, R. K. & Ho, C. S., pp 97-152.
The phosphodiesterase activity was determined by the SPA assay as described by the manufacturer Amersham Biosciences and by Horton J. K and Baxendale P. M., Methods Mol. Biol. (1995) 41: 91-105.
The reaction mixtures contained 100 mM Tris-HCl (pH 7.5), 5 mM MgCl2, 3.8 mM 2-mercaptoethanol, and 1 μM cAMP or cGMP as a substrate, the inhibitors at different concentrations and also further components required for the detection of the individual isoenzymes (see below). The reaction was started by adding the enzyme. The operating volume is 100 μl in the wells of a white 96-Well microtiter plate. The test substances were produced as stock solutions in DMSO. The DMSO concentration in the reaction batch was 1% v/v. The PDE activity is not impaired with this DMSO concentration. Having started the reaction by the addition of enzyme, the samples were incubated at 22° C. for 20 min. The reaction was stopped by the addition of SPA bead suspension which contains the zinc sulfate concentration provided according to the manufacturer. Then, the beads are allowed to sediment for 30 min and the plates are analyzed on the luminescence microtiter plate reader Fluostar Optima (BMG Labtechologies).
[^3H]-cAMP was used as a substrate for determining the activity of PDE-2, -3, -4 and -7 and [^3H]-cGMP for determining the activity of PDE-5. The non-specific enzyme activities were determined in the presence of 100 μM rolipram (for PDE-4) and in the presence of 100 μM IBMX (for PDE-3 and -5) and subtracted from the test values. The incubation samples of the PDE-3 assay contain 10 μM rolipram to inhibit possible contaminations by PDE-4. The PDE-2 activity is tested using a SPA assay by Amersham Biosciences in the presence of the PDE-2 activator 5 μM cGMP. […] The selectivity as to PDEs 2, 3 and 5 has a factor of 100 to 10 000.

T1 sequence (P27815 342-704): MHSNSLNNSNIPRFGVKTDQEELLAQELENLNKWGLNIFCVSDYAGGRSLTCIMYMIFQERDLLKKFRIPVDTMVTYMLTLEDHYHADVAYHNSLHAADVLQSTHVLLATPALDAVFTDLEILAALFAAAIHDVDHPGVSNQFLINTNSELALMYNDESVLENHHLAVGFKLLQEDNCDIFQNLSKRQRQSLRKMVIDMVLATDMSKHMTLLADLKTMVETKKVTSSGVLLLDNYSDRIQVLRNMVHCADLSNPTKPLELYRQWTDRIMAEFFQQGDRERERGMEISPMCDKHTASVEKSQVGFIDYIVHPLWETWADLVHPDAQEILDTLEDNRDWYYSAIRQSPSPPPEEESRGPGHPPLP

IC50	SMILES
< 2 nM	CCOc1nc(N2CCNCC2)c2sc3nc(-c4ccc5c(c4)OCCO5)cc(CC)c3c2n1 [2-Ethoxy-9-ethyl-7-(2,3-dihydrobenzo[b][1,4]dioxin-6-yl)-4-(piperazin-1-yl)-pyrido[3′,2′:4,5]thieno[3,2-d]pyrimidine]
< 2 nM	CCOc1nc(N2CCNCC2)nc2c1sc1nc(-c3cccc(C#N)c3)cc(C(F)(F)F)c12 [7-(3-Cyano-phenyl)-4-ethoxy-2-piperazin-1-yl-9-trifluoromethyl-pyrido[3′,2′:4,5]thieno[3,2-d]pyrimidine]
< 2 nM	CCOc1nc(N2CCNCC2)nc2c1sc1nc(-c3ccc(SC)cc3)cc(C(F)(F)F)c12 [4-Ethoxy-7-(4-methylthiophenyl)-2-(piperazin-1-yl)-9-trifluoromethyl-pyrido[3′,2′:4,5]thieno[3,2-d]pyrimidine]
2 to 50 nM	CCOC(=O)c1ccc(-c2ccc(-c3nc(C)c4c(n3)sc3c(OCC)nc(N5CCNCC5)nc34)cc2)cc1 [4-(4-Ethoxy-9-methyl-2-piperazin-1-yl-thieno[2,3-d:4,5-d′]dipyrimidin-7-yl)-biphenyl-4′-carboxylic acid ethyl ester]
< 2 nM	CCOc1nc(N2CCNCC2)nc2c1sc1nc(-c3ccc(Oc4ccccc4)cc3)nc(C)c12 [4-Ethoxy-9-methyl-7-(4-phenoxy-phenyl)-2-piperazin-1-yl-thieno[2,3-d:4,5-d′]dipyrimidine]
2 to 50 nM	CCOc1nc(N2CCNCC2)nc2c1sc1nc(-c3ccc(Cl)cc3)cc(C(F)F)c12 [9-Difluoromethyl-7-(4-chloro-phenyl)-4-ethoxy-2-piperazin-1-yl-pyrido[3′,2′:4,5]thieno[3,2-d]pyrimidine]
< 2 nM	CCOc1nc(N2CCNCC2)nc2c1sc1nc(-c3ccc(-n4cccn4)cc3)cc(C(F)(F)F)c12 [4-Ethoxy-7-(4-(1H-pyrazol-1-yl)-phenyl)-2-piperazin-1-yl-9-trifluoromethyl-pyrido[3′,2′:4,5]thieno[3,2-d]pyrimidine]
< 2 nM	CCOc1nc(N2CCNCC2)nc2c1sc1nc(-c3ccc(I)cc3)cc(CC)c12 [4-Ethoxy-9-ethyl-7-(4-iodo-phenyl)-2-(piperazin-1-yl)-pyrido[3′,2′:4,5]thieno[3,2-d]pyrimidine]
2 to 50 nM	CCOc1nc(N2CCNCC2)c2sc3nc(N4CCOCC4)cc(C)c3c2n1 [2-Ethoxy-9-methyl-7-morpholino-4-(piperazin-1-yl)-pyrido[3′,2′:4,5]thieno[3,2-d]pyrimidine]
2 to 50 nM	CCOc1nc(N2CCNCC2)nc2c1sc1nc(-c3ccc(-c4ccc(C(=O)O)cc4)cc3)nc(C)c12 [4-(4-Ethoxy-9-methyl-2-piperazin-1-yl-thieno[2,3-d:4,5-d′]dipyrimidin-7-yl)-biphenyl-4′-carboxylic acid sodium salt]
2 to 50 nM	CCOc1nc(N2CCNCC2)nc2c1sc1nc(-c3ccc(-c4ccccc4)cc3)nc(C)c12 [7-(4-Biphenyl)-4-ethoxy-9-methyl-2-piperazin-1-yl-thieno[2,3-d:4,5-d′]dipyrimidine]
2 to 50 nM	CCOc1nc(N2CCNCC2)nc2c1sc1nc(-c3ccc(F)cc3)cc(C(F)(F)F)c12 [4-Ethoxy-7-(4-fluoro-phenyl)-2-piperazin-1-yl-9-trifluoromethyl-pyrido[3′,2′:4,5]thieno[3,2-d]pyrimidine]
2 to 50 nM	CCOc1nc(N2CCNCC2)nc2c1sc1nc(-c3ccc(OC)cc3)c(Cc3ccc([N+](=O)[O-])cc3)c(C)c12 [4-Ethoxy-7-(4-methoxy-phenyl)-9-methyl-8-(4-nitro-benzyl)-2-(piperazin-1-yl)-pyrido[3′,2′:4,5]thieno[3,2-d]pyrimidine]
< 2 nM	CCOC(=O)c1ccc(-c2cc(C(F)(F)F)c3c(n2)sc2c(OCC)nc(N4CCNCC4)nc23)cc1 [4-[4-Ethoxy-2-(piperazin-1-yl)-9-trifluoromethyl-pyrido[3′,2′:4,5]thieno[3,2-d]pyrimidin-7-yl]-benzoic acid ethyl ester]
< 2 nM	CCOc1nc(N2CCNCC2)nc2c1sc1nc(-c3ccc(NC(=O)OC)cc3)cc(C(F)(F)F)c12 [4-(4-Ethoxy-9-trifluoromethyl-2-piperazin-1-yl-pyrido[3′,2′:4,5]thieno[3,2-d]pyrimidin-7-yl)-phenyl-carbamic acid methyl ester]
< 2 nM	CCOc1nc(N2CCNCC2)nc2c1sc1nc(-c3ccc(-n4cccc4)cc3)cc(C(F)(F)F)c12 [4-Ethoxy-9-trifluoromethyl-2-piperazin-1-yl-7-(4-(1H-pyrrol-1-yl)-phenyl)-pyrido[3′,2′:4,5]thieno[3,2-d]pyrimidine]

IC50	SMILES
2 to 50 nM	CCc1cc(-c2ccc(C)cc2)nc2sc3c(N4CCNCC4)nc(OCCO)nc3c12 [2-(2-Hydroxy-ethoxy)-9-ethyl-7-(4-methyl-phenyl)-4-(piperazin-1-yl)-pyrido[3′,2′:4,5]thieno[3,2-d]pyrimidine]
2 to 50 nM	CCOc1nc(N2CCNCC2)nc2c1sc1nc(-c3cccc4ccccc34)nc(C)c12 [4-Ethoxy-9-methyl-7-(1-naphthyl)-2-piperazin-1-yl-thieno[2,3-d:4,5-d′]dipyrimidine]
< 2 nM	CCOc1nc(N2CCNCC2)nc2c1sc1nc(-c3ccc(C)cc3)cc(C(F)(F)F)c12 [4-Ethoxy-7-(4-methyl-phenyl)-2-(piperazin-1-yl)-9-trifluoromethyl-pyrido[3′,2′:4,5]thieno[3,2-d]pyrimidine]
2 to 50 nM	CCOc1nc(N2CCNCC2)nc2c1sc1nc(-c3ccc(OC(C)C)cc3)nc(C)c12 [4-Ethoxy-9-methyl-2-piperazin-1-yl-7-(4-iso-propoxy-phenyl)-thieno[2,3-d:4,5-d′]dipyrimidine]
< 2 nM	CCOc1nc(N2CCNCC2)nc2c1sc1nc(-c3ccc(-c4cccnc4)cc3)nc(C)c12 [4-Ethoxy-9-methyl-2-piperazin-1-yl-7-(4-[3-pyridyl]-phenyl)-thieno[2,3-d:4,5-d′]dipyrimidine]
2 to 50 nM	CCOc1nc(N2CCNCC2)c2sc3nc(-c4cccs4)cc(C)c3c2n1 [2-Ethoxy-9-methyl-7-thien-2-yl-9-methyl-4-(piperazin-1-yl)-pyrido[3′,2′:4,5]thieno[3,2-d]pyrimidine]
2 to 50 nM	CCOc1nc(N2CCNCC2)nc2c1sc1nc(-c3ccc(-c4ccc(C(=O)O)cc4N)cc3)nc(C)c12 [2′-Amino-4-(4-ethoxy-9-methyl-2-piperazin-1-yl-thieno[2,3-d:4,5-d′]dipyrimidin-7-yl)-biphenyl-4′-carboxylic acid sodium salt]
< 2 nM	CCOc1nc(N2CCNCC2)nc2c1sc1nc(-c3ccc(-c4ccc(N)cc4)cc3)nc(C)c12 [7-(4′-Aminobiphen-4-yl)-4-ethoxy-9-methyl-2-piperazin-1-yl-thieno[2,3-d:4,5-d′]dipyrimidine]
2 to 50 nM	Cc1cc(-c2ccccc2)nc2sc3c(OCC(F)F)nc(N4CCNCC4)nc3c12 [4-(2,2-Difluoro-ethoxy)-9-methyl-7-phenyl-2-(piperazin-1-yl)-pyrido[3′,2′:4,5]thieno[3,2-d]pyrimidine]
< 2 nM	CCOc1nc(N2CCNCC2)nc2c1sc1nc(-c3ccc(OC)cc3)cc(C(F)(F)F)c12 [4-Ethoxy-7-(4-methoxy-phenyl)-2-(piperazin-1-yl)-9-trifluoromethyl-pyrido[3′,2′:4,5]thieno[3,2-d]pyrimidine]
< 2 nM	CCOc1nc(N2CCNCC2)nc2c1sc1nc(-c3ccc4c(c3)OCCO4)cc(CC)c12 [4-Ethoxy-9-ethyl-7-(2,3-dihydrobenzo[b][1,4]dioxin-6-yl)-2-(piperazin-1-yl)-pyrido[3′,2′:4,5]thieno[3,2-d]pyrimidine]
< 2 nM	CCOc1nc(N2CCNCC2)nc2c1sc1nc(-c3ccc4c(c3)OCO4)cc(CC)c12 [4-Ethoxy-9-ethyl-7-(3,4-methylenedioxyphenyl)-2-piperazin-1-yl-pyrido[3′,2′:4,5]thieno-[3,2-d]pyrimidine]
2 to 50 nM	CCOc1nc(N2CCNCC2)nc2c1sc1nc(-c3ccc(C)cc3)cc(C)c12 [4-Ethoxy-9-methyl-7-(4-methyl-phenyl)-2-(piperazin-1-yl)-pyrido[3′,2′:4,5]thieno[3,2-d]pyrimidine]
2 to 50 nM	CCOc1nc(N2CCNCC2)nc2c1sc1nc(N3CCSCC3)cc(C)c12 [4-Ethoxy-9-methyl-7-thiomorpholino-2-(piperazin-1-yl)-pyrido[3′,2′:4,5]thieno[3,2-d]pyrimidine-hydrochloride]
< 2 nM	CCOc1nc(N2CCNCC2)nc2c1sc1nc(-c3ccc(SC)cc3)cc(CC)c12 [4-Ethoxy-9-ethyl-7-(4-methylthio-phenyl)-2-(piperazin-1-yl)-pyrido[3′,2′:4,5]thieno[3,2-d]pyrimidine]
